Test results taken from paper PMC11410249 (PLOS ONE, 2024).

What was measured:
Assay type in all cases: biochemical
cyclooxygenase (COX-2) = target: T1, cyclooxygenase (COX-2) (Homo sapiens, UniProt P35354); assay: in vitro enzyme activity assay (product formation by LC-MS/MS)
T1 construct: gene PTGS2
T1 sequence (P35354 18-604): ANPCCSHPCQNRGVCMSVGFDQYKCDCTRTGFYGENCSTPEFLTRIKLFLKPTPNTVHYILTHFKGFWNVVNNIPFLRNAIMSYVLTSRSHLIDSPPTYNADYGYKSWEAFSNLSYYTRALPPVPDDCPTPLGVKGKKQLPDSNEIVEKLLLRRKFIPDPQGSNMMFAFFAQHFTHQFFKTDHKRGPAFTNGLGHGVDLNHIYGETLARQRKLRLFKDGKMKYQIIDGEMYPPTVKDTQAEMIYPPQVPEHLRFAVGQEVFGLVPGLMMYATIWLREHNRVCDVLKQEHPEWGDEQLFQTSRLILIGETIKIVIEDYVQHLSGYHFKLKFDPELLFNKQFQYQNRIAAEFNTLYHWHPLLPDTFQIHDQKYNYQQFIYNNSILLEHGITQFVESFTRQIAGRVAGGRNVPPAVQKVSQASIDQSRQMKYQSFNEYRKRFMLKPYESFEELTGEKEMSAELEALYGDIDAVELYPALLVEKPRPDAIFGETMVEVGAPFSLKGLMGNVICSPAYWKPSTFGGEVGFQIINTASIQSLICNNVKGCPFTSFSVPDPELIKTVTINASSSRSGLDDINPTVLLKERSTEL

5-lipoxygenase (5-LO) = target: T2, 5-lipoxygenase (5-LO) (Homo sapiens, UniProt P09917); assay: LC-MS/MS activity assay in lysate of 5-LO-transfected Expi293F cells, […] arachidonic acid
T2 construct: gene ALOX5; full-length human 5-LO
T2 sequence (P09917 1-674): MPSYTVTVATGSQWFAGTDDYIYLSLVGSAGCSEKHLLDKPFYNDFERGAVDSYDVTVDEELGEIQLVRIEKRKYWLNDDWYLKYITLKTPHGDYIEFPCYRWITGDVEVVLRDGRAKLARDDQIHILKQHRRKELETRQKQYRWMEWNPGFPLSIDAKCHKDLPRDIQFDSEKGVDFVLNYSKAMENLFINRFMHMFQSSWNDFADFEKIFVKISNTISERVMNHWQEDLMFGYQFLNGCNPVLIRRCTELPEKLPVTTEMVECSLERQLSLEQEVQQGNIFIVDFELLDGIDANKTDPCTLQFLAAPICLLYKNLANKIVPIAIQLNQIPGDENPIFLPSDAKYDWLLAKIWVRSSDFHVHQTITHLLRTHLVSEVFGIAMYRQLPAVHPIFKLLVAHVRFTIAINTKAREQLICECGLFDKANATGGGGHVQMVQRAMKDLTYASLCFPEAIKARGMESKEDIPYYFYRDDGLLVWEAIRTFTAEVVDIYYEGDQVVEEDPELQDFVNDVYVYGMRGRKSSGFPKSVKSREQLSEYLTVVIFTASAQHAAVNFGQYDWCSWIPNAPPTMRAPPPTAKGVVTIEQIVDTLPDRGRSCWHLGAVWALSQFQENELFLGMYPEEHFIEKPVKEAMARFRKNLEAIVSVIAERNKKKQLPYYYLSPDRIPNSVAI

15-lipoxygenase (15-LO) = target: T3, 15-lipoxygenase (15-LO) (Homo sapiens, UniProt P16050); assay: LC-MS/MS enzyme activity assay, […] enzyme, […] arachidonic acid
T3 construct: gene ALOX15
T3 sequence (P16050 2-662): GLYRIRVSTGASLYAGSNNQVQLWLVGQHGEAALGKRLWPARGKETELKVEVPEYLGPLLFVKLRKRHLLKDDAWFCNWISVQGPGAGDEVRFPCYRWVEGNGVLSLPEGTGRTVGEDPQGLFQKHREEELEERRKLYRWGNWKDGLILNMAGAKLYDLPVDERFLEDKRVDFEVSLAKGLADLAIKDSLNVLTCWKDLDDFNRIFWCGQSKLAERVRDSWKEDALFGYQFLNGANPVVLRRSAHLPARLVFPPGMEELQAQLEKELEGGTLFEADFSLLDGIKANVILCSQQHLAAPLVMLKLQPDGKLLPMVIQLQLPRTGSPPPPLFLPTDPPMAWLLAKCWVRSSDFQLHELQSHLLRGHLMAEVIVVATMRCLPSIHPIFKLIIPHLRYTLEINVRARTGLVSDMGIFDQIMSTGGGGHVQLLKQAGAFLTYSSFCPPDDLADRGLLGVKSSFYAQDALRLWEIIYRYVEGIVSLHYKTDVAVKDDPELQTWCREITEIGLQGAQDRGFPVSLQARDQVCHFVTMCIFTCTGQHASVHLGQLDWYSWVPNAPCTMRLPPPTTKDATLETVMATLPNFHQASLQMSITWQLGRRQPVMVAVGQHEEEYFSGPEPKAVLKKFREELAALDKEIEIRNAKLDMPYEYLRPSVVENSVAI

12-LO = target: T4, 12-LO (Homo sapiens, UniProt P18054); assay: as above
T4 construct: gene ALOX12
T4 sequence (P18054 1-663): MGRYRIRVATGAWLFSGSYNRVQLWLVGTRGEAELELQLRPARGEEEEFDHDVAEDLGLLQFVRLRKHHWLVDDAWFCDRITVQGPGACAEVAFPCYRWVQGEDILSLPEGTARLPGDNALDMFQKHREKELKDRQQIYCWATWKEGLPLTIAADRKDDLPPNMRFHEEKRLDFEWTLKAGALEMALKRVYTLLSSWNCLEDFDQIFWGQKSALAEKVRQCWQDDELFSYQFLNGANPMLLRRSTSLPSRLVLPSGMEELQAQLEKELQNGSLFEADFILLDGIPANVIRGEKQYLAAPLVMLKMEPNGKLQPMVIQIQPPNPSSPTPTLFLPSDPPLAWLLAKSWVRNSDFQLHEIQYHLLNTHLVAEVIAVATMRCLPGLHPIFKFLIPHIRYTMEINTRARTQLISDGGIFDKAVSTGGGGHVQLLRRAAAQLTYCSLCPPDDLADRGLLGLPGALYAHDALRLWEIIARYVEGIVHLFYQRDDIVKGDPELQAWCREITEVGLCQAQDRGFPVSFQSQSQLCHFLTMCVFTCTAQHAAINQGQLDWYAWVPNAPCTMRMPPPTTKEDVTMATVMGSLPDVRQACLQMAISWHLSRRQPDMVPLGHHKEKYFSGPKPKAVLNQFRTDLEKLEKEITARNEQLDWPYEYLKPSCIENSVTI

- IC50 (cyclooxygenase (COX-2)): 9.6 µM
- IC50 (5-lipoxygenase (5-LO)): 0.46 µM
- IC50 (15-lipoxygenase (15-LO)): 0.95 µM
- IC50 (12-LO): 5.2 µM
Substance: PTC-041 hydroquinone
